Values of other authors as cited in US5028528A, “Analytical element for theophylline determination using buffer in a subbing zone” (Eastman Kodak Company, priority 1988, dated 1991).

Conditions: in a patient

SMILES: Cn1c(=O)c2[nH]cnc2n(C)c1=O [Theophylline]
- therapeutic range of use: 1 to 2 mg/dL
